Consider 76 compounds from publication PMC12040169 (PLOS Biology, 2025).

A word on the viability: it is a read-out of living cells in per cent, often relative to untreated cells.

One series in a line: in vitro. The conditions noted are these: human, hela cells, % viability.
Turning to `CC1(C)Cc2c(sc(NC(=O)C3CC(Cl)=CCC3C(=O)O)c2C#N)CO1` (stereo not shown) [CBK265002], the viability at 28.5 h, 10 µM is 97.6%.

For `O=C(COc1ccc([N+](=O)[O-])cc1)Nc1ccc(S(=O)(=O)N2CCCCC2)cc1` [CBK265003], the viability at 28.5 h, 10 µM stood at 119%. For `Cc1cc(C)nc(NC(=O)COc2ccc([N+](=O)[O-])cc2)n1` [CBK265004], the viability at 28.5 h, 10 µM was found to be 101%. Same read-out and setting: in the case of `O=C(CSc1nc[nH]n1)Nc1ccccc1[N+](=O)[O-]` [CBK265005] it was 100%; in that of `CCc1ccc(OCC(=O)Nc2ccc3oc(-c4ccc(F)cc4Cl)nc3c2)cc1` [CBK265010], 100%. As for `O=C(O)c1ccc(CSc2nnc(-c3ccccc3)n2Cc2ccccc2)cc1` [CBK265013], the viability at 28.5 h, 10 µM was determined as 114%. `Cc1ccc(S(=O)(=O)Oc2cccc(C(c3c(C)n[nH]c3O)c3c(C)n[nH]c3O)c2)cc1` [CBK265016]: the viability at 28.5 h, 10 µM was 95.1%. On to `CC(=O)c1c(C)[n+]([O-])c2cc(Cl)c(Cl)cc2[n+]1[O-]` [CBK265017], for which the viability at 28.5 h, 10 µM stood at 108%. On to `CC(C)(C)c1ccc(CNC(=O)C2CCCN2S(=O)(=O)c2ccc3ccccc3c2)cc1` (stereo not shown) [CBK265020], for which the viability at 28.5 h, 10 µM worked out at 109%.

With `COc1cc(C2SCC(=O)Nc3c2c(-c2ccccc2)nn3-c2ccccc2)cc(OC)c1OC` (stereo not shown) [CBK265025], the viability at 28.5 h, 10 µM was found to be 108%. For `NC(=O)COc1cccc(/C=C2/SC(Nc3cccc(C(=O)O)c3)=NC2=O)c1` [CBK265027], the viability at 28.5 h, 10 µM was found to be 104%. With `COc1cc(/C=N/N=C(/Nc2ccc(C)cc2)c2nc3ccccc3s2)ccc1O` [CBK265029], the viability at 28.5 h, 10 µM amounted to 103%. On the same count and under the same terms, to `CCOC(=O)c1cnc2ccc(Br)cc2c1NCc1cccnc1` [CBK265030] belongs 83.5%; to `Cc1ccc(OCc2nnc(SCC(=O)c3cccs3)n2-c2ccccc2)cc1C` [CBK265033], 101%.

As for `CN(C)CCN(CC#Cc1ccccc1)CC#Cc1ccccc1` [CBK265035C], the viability at 28.5 h, 10 µM stood at 116%. Same read-out and setting: in the case of `S=c1n(CN2CCC(c3ccccc3)CC2)nc(Cc2ccccc2)n1-c1ccccc1` [CBK265037] it was 95.2%. Turning to `O=[N+]([O-])c1ccc(Sc2nnc(COc3ccccc3)n2-c2ccccc2)nc1` [CBK265041], the viability at 28.5 h, 10 µM was 85.8%.

As to `CCCCOC(=O)c1c(N)n(-c2ccc(C(=O)O)cc2)c2nc3ccccc3nc12` [CBK265046], the viability at 28.5 h, 10 µM came out at 94.6%. Take `Cn1c(Sc2ccc(C(=O)O)cc2[N+](=O)[O-])nnc1-c1ccccc1` [CBK265047]: the viability at 28.5 h, 10 µM stood at 103%. For `CCC(=O)NC(c1ccc(C)cc1)c1cc([N+](=O)[O-])c2cccnc2c1O` (stereo not shown) [CBK265048], the viability at 28.5 h, 10 µM stood at 121%.

On to `COc1ccccc1/C=N/N=C(/Nc1ccc(C)cc1)c1nc2ccccc2s1` [CBK265051], for which the viability at 28.5 h, 10 µM was determined as 124%. The same measure, in the same setting: to `S=c1[nH]nc(Cc2cccc3ccccc23)n1-c1ccccc1` [CBK265052] belongs 97.3%; to `N#C/C(=C\c1ccc(-c2cccc(C(=O)O)c2)o1)c1nc2ncc(Br)cc2[nH]1` [CBK265054], 96.1%. Regarding `Clc1ccc(SCCN2CCOCC2)cc1` [CBK265055G], the viability at 28.5 h, 10 µM turned out to be 98.8%.

In the case of `O=C(CN1CCOCC1)Nc1sc2c(c1C(=O)Nc1ccc(Cl)cc1)CCC2` [CBK265056], the viability at 28.5 h, 10 µM worked out at 102%. On the same count and under the same terms, in the case of `C=CCSC1=N/C(=C\c2ccc(C(=O)O)cc2)C(=O)S1` [CBK265057] it was 95.7%; in that of `Cc1cccc(C(C)(C)C)c1OCCNCCN` [CBK265058G], 118%; in that of `O=C(NC(=S)Nc1ccc(C(=O)O)c(Cl)c1)c1ccc(-c2ccc(Cl)cc2)o1` [CBK265063], 105%.

Regarding `COc1ccc(C(=O)O)cc1NC(=S)NC(=O)c1ccc(-c2ccccc2)cc1` [CBK265064], the viability at 28.5 h, 10 µM came out at 99.5%.

Consider `CC(=O)Nc1ccccc1NC(=O)COc1ccc(Br)cc1C` [CBK265072], for which the viability at 28.5 h, 10 µM was found to be 103%.

In the case of `Cc1ncc(CO)c(/C=N/N=C/c2ccc(O)c(O)c2)c1O` [CBK265075], the viability at 28.5 h, 10 µM turned out to be 103%. As for `O=C(CN1CCCCCC1)Nc1sc2c(c1C(=O)Nc1ccc(Br)cc1)CCC2` [CBK265076], the viability at 28.5 h, 10 µM was found to be 109%. For the compound `Cc1ccc(S(=O)(=O)N/N=C/C=C/c2ccc(N(C)C)cc2)cc1` [CBK265078], the viability at 28.5 h, 10 µM was found to be 99.7%.

Take `CC(=O)Nc1ccc(NC(=O)c2cc(-c3ccc(Cl)cc3Cl)nc3ccccc23)cc1` [CBK265080]: the viability at 28.5 h, 10 µM was found to be 80.8%. Still for that read-out and setting: to `OCCNCCOc1ccc(Cl)cc1Br` [CBK265083G] belongs 116%; to `Clc1ccccc1CSc1nnc2c(n1)OC=Nc1ccccc1-2` [CBK265085], 99.1%. On to `O=C(Nc1sc2c(c1C(=O)NCc1ccco1)CCCC2)c1sc2ccccc2c1Cl` [CBK265086], for which the viability at 28.5 h, 10 µM amounted to 92.1%.

For `COCCNCCOc1c(Cl)cc(C)cc1Br` [CBK265087G], the viability at 28.5 h, 10 µM came out at 113%. Consider `Cc1cc(Cl)c(OCCN2CCC(C)CC2)c(Br)c1` [CBK265088G], for which the viability at 28.5 h, 10 µM came to 78.3%. As to `Cc1ccc(NC(=O)c2ccccc2OCC(=O)NC23CC4CC(CC(C4)C2)C3)cc1Cl` [CBK265091], the viability at 28.5 h, 10 µM amounted to 101%. For `COCCCNCCSc1ccc(Cl)cc1` [CBK265093], the viability at 28.5 h, 10 µM was 95%.

With `Cc1cc(Br)ccc1OCC(=O)O/N=C(\N)Cc1ccc([N+](=O)[O-])cc1` [CBK265095], the viability at 28.5 h, 10 µM stood at 99.8%. As for `Cn1c(SCC(=O)Nc2ccccc2[N+](=O)[O-])nc2ccccc2c1=O` [CBK265096], the viability at 28.5 h, 10 µM is 106%. The same measure, in the same setting: in the case of `Cc1cc(C(C)(C)C)ccc1OCCNCCN` [CBK265097G] it was 91.3%; in that of `Cc1cccc(N2C(=O)c3ccc(C(=O)OC(C(=O)c4ccccc4)c4ccccc4)cc3C2=O)c1` (stereo not shown) [CBK265098], 88.8%. Same read-out and setting: in the case of `CCOc1ccc(C(=O)NC(=S)Nc2cccc(C(=O)O)c2C)cc1Br` [CBK265100] it was 93.6%; in that of `CC(C)(c1ccccc1)c1ccc(OCCNCCN)cc1` [CBK265102], 103%; in that of `CCC(C(=O)NCCCN1CCOCC1)c1ccccc1` (stereo not shown) [CBK265103], 116%.

`COc1ccc(C(=O)CSc2nnc(C(O)c3ccccc3)n2-c2ccccc2)cc1` (stereo not shown) [CBK265104]: the viability at 28.5 h, 10 µM worked out at 109%.

Turning to `COc1ccccc1C(=O)Nc1sc2c(c1C(=O)NCc1ccco1)CCCC2` [CBK265105], the viability at 28.5 h, 10 µM was 100%. As to `Clc1ccc(SCCOCCN2CCCCC2)cc1` [CBK265108G], the viability at 28.5 h, 10 µM is 87.3%. On the same count and under the same terms, to `Cc1ccc(S(=O)(=O)NC(CC(=O)Nc2ccc(Br)cc2)c2ccccc2)cc1` (stereo not shown) [CBK265110] belongs 93.3%; to `Cc1ccc2nc(O)cc(C(=O)OCC(=O)c3cccc([N+](=O)[O-])c3)c2c1` [CBK265115], 94.1%; to `CCN1C(=O)/C(=C/c2cc3c(cc2Cl)OCO3)NC1=S` [CBK265117], 96.5%. Still for that read-out and setting: in the case of `CC(C)(C)CC(C)(C)N=C(S)Nc1ccc2nc(-c3ccccn3)c(-c3ccccn3)nc2c1` [CBK265118] it was 91%; in that of `CCOc1ccc(S(=O)(=O)N2CCCCC2)cc1-c1nc2c(C(C)(C)C)nn(C)c2c(=O)[nH]1` [CBK265119], 113%; in that of `O=C1CC(Cc2ccccc2)C(=O)N1CCCn1ccnc1` (stereo not shown) [CBK265123G], 97.4%.

Turning to `C/C(=C\C(=O)Nc1ccc(O)cc1C(=O)O)c1ccccc1` [CBK265125], the viability at 28.5 h, 10 µM stood at 115%. Regarding `CN(CC(=O)NCc1ccccn1)S(=O)(=O)c1ccc(Br)cc1` [CBK265127], the viability at 28.5 h, 10 µM was 94.4%. With `Cc1ccc2nc(-c3ccccc3)c(CC(=O)O)c(C(=O)O)c2c1` [CBK265128], the viability at 28.5 h, 10 µM was determined as 87.3%. The same measure, in the same setting: to `O=C1CC(C(=O)Nc2ncccn2)C(c2ccccc2)O1` (stereo not shown) [CBK265130] belongs 106%; to `O=C(O)c1ccccc1C(=O)Nc1ccc(Oc2cccc3ccccc23)cc1` [CBK265131], 84.9%. On the same count and under the same terms, to `O=C(CCN1C(=O)c2ccc([N+](=O)[O-])cc2C1=O)Nc1ccccc1-c1ccccc1` [CBK265134] belongs 103%; to `CSCCC(C(=O)O)N1C(=O)c2ccc(C(=O)O)cc2C1=O` (stereo not shown) [CBK265135], 110%. With `O=C(Nc1cccc([N+](=O)[O-])c1)c1ccc2nc(-c3ccccn3)c(-c3ccccn3)nc2c1` [CBK265137], the viability at 28.5 h, 10 µM was determined as 101%.

As to `CCN1C(=O)/C(=C/c2cc(Br)ccc2OCc2cccc([N+](=O)[O-])c2)NC1=S` [CBK265138], the viability at 28.5 h, 10 µM turned out to be 93.6%. Consider `COc1cc(/C=C2/NC(=O)N(c3ccccc3)C2=O)ccc1OCc1ccc(C(=O)O)cc1` [CBK265139], for which the viability at 28.5 h, 10 µM was determined as 84.6%. Consider `Cc1ccc(S(=O)(=O)NCCNc2ccc([N+](=O)[O-])cc2C(F)(F)F)cc1` [CBK265140], for which the viability at 28.5 h, 10 µM amounted to 90.6%. Same read-out and setting: to `Cc1ccc(S(=O)(=O)N(CC(=O)N2CCN(C)CC2)Cc2ccc(Cl)cc2Cl)cc1` [CBK265144] belongs 100%; to `CCOC(=O)C(C)N1C(=O)S/C(=C/c2cc(C)n(-c3ccncc3)c2C)C1=O` (stereo not shown) [CBK265145], 99.9%.

With `Cc1cccc(/C=C2/SC(=S)N(CC(=O)O)C2=O)n1` [CBK265146], the viability at 28.5 h, 10 µM came to 82.9%. As to `CCCc1cc(O)nc(SCC(=O)Nc2ccc(Cl)cc2Cl)n1` [CBK265147], the viability at 28.5 h, 10 µM is 83.7%. Take `CCOC(=O)N1CCN(Cn2nc(COc3ccccc3)n(C)c2=S)CC1` [CBK265148]: the viability at 28.5 h, 10 µM was 97.4%. On to `O=C(O)c1cc(NC(=O)c2ccc(NC(=O)c3ccco3)cc2)cc(C(=O)O)c1` [CBK265149], for which the viability at 28.5 h, 10 µM turned out to be 111%. Turning to `CCOC(=O)c1ccccc1OC(=O)c1ccc2c(c1)C1C=CCC1C(C(=O)O)N2` (stereo not shown) [CBK265155], the viability at 28.5 h, 10 µM was 101%.

Staying with this series, now noted: human, hela cells, % viability, bulk resorufin, single well.
For `COc1cc(/C=C2\C(=O)NC(=S)N(c3cccc(C)c3C)C2=O)ccc1OC(C)C(=O)O` (stereo not shown) [CBK265132], the viability at 28.5 h, 10 µM is 98.7%.
